In US20210371459A1, “DIMERIC PEPTIDE INHIBITORS OF APOPTOSIS PROTEINS” (Hepagene Therapeutics (HK) Limited, priority 2017, published 2021) one finds IC50 data, which are given here for nine molecules.

Common to all, as to conditions: FP, probe AbuRPFK-5FAM, 60 min at 25° C.
Test [1] has as its target T1, cIAP1-BIR3 (Homo sapiens, UniProt Q13490).
T1 construct: cIAP1-BIR3; Reaction Biology; APT-11-370; purchased Reaction Biology APT-11-370
Briefly: cIAP1-BIR3 fluorescence polarization binding assay. The text has this:
(§1) IAPs are one main cause of cancer development and may result from overexpression of anti-apoptotic proteins. This protocol establishes three binding assays for XIAP Bir3 domain, cIAP1 and cIAP2 using FP (Fluorescence polarization) technology. The fluorescence probe used is a synthetic peptide conjugated to 5-carboxyfluorescein (AbuRPFK-5FAM). The fluorescence polarization value (mP) was detected by Envision, which was used to reflect the binding degree of protein and fluorescent marker. Reagents and equipment used in the assay are listed below, followed by the protocol.
(§2) • a) Prepare 100 times of the final cpd concentration in appropriate tube and transfer 5 uL compound (“cpd”) to 45 μL 1× reaction buffer with 10% DMSO. • b) The final reference cpd concentration is 10000, 3333.3, 1111.1, 370.4, 123.4, 41.2, 13.7, 4.57, 1.52, 0.51, 0.17 and 0 nM. So the 100 times of the concentration is 1000, 333.3, 111.1, 37.04, 12.34, 4.12, […], 0.15, 0.05, 0.017 and 0 μM. The final test cpds concentration is 3333.3, 1111.1, 370.4, 123.4, 41.2, 13.7, 4.57, 1.52, 0.51, 0.17, 0.057 and 0 nM. So the 100 times of the concentration is 333.3, 111.1, 37.04, 12.34, 4.12, […], 0.15, 0.05, 0.017, 0.0057 and 0 μM • c) Add 8 μL/well each dose enzyme to 384 well microplate (ProxiPlate-384 F Plus, 6008260) using multichannel pipette, prepared in step 2.1.1.2 • d) Centrifuge at 1000 rpm. • e) Add 2 μL/well cpd to 384 well microplate (ProxiPlate-384 F Plus, 6008260) using multichannel pipette, prepared in step a). • f) Centrifuge at 1000 rpm. RT, 15 min. • g) Start the assay by adding 10 uL/well substrate (prepared in step 2.1.1.3) to the same 384 well microplate using multichannel pipette • h) Centrifuge at 1000 rpm. • i) Cover the assay plate and incubate for 60 min at 25° C. • j) Read on Envision 2104 for mP and plot the IC50s with mP values. • k) Data analysis: IC50s were determined based on a non-linear regression analysis of data collected.
A general note: Polarisation of emitted light reports the rotation of a fluorescent probe.

Test [2] concerns the target T2, cIAP2-BIR3 (Homo sapiens, UniProt Q13489).
T2 construct: cIAP2-BIR3; Reaction Biology; APT-11-372; purchased Reaction Biology APT-11-372
As to the kind of experiment: cIAP2-BIR3 fluorescence polarization binding assay.
Excerpt: as §1, §2

Test [3] concerns the target T3, XIAP-BIR3 (Homo sapiens, UniProt P98170).
T3 construct: purchased Reaction Biology APT-11-374
As to the kind of experiment: XIAP-BIR3 fluorescence polarization binding assay.
Excerpt: as §1, §2

T3 sequence (P98170 241-356 limits assumed): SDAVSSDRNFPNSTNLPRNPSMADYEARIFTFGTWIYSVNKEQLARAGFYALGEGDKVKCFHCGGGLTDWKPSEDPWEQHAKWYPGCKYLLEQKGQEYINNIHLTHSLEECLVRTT
T1 sequence (Q13490 253-363 limits assumed): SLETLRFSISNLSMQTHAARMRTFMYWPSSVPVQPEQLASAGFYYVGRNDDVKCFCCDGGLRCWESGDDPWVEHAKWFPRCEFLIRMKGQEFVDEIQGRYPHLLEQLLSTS
T2 sequence (Q13489 238-349 limits assumed): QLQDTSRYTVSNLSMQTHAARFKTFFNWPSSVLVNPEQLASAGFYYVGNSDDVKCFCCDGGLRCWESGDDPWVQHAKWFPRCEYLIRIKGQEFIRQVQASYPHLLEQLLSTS

The IC50 is the point on the concentration scale where inhibition reaches its midpoint. Low readings indicate greater potency in that assay, high ones weaker potency in that assay. Consider `CN[C@@H](C)C(=O)N[C@H](C(=O)N1C[C@@H](OCCCN2CCN(CCCO[C@H]3C[C@@H](C(=O)N[C@@H]4CCCc5ccccc54)N(C(=O)[C@@H](NC(=O)[C@H](C)NC)C4CC4)C3)CC2)C[C@H]1C(=O)N[C@@H]1CCCc2ccccc21)C1CC1` [Compound II-F, (2S,4S)-1-[(2S)-2-Cyclopropyl-2-[(2S)-2-(methylamino)propanamido]acetyl]-4-[3-[4-(3-[[(3S,5S)-1-[(2S)-2-cyclopropyl-2-[(2S)-2-(methylamino)propanamido]acetyl]-5-[[(1R)-1,2,3,4-tetrahydronaphthalen-1-yl]carbamoyl]pyrrolidin-3-yl]oxy]propyl)piperazin-1-yl]propoxy]-N-[(1R)-1,2,3,4-tetrahydronaphthalen-1-yl]pyrrolidine-2-carboxamide], for which the IC50 fell in the range of 0.1 to 10 nM in test [1], 10 to 100 nM in test [2] and 100 to 1000 nM in test [3].
As for `CC[C@H](C)[C@H](NC(=O)[C@H](C)NC)C(=O)N1C[C@@H](OCCCN2CCN(CCCO[C@H]3C[C@@H](C(=O)N[C@@H]4CCCc5ccccc54)N(C(=O)[C@@H](NC(=O)[C@H](C)NC)[C@@H](C)CC)C3)CC2)C[C@H]1C(=O)N[C@@H]1CCCc2ccccc21` [Compound II-G, (2S,4S)-1-[(2S)-3-Methyl-2-[(2S)-2-(methylamino)propanamido]pentanoyl]-4-{3-[4-(3-{[(3S,5S)-1-[(2S)-3-methyl-2-[(2S)-2-(methylamino)propanamido]pentanoyl]-5-{[(1R)-1,2,3,4-tetrahydronaphthalen-1-yl]carbamoyl}pyrrolidin-3-yl]oxy}propyl)piperazin-1-yl]propoxy}-N-[(1R)-1,2,3,4-tetrahydronaphthalen-1-yl]pyrrolidine-2-carboxamide], the IC50 in test [1], in test [2] and in test [3] was 0.1 to 10 nM each time.
Consider `CN[C@@H](C)C(=O)N[C@H](C(=O)N1C[C@@H](OCCCN2CCN(CCCO[C@H]3C[C@@H](C(=O)N[C@@H]4CCCc5ccccc54)N(C(=O)[C@@H](NC(=O)[C@H](C)NC)C4CCC4)C3)CC2)C[C@H]1C(=O)N[C@@H]1CCCc2ccccc21)C1CCC1` [Compound II-H, (2S,4S)-1-[(2S)-2-Cyclobutyl-2-[(2S)-2-(methylamino)propanamido]acetyl]-4-[3-[4-(3-[[(3S,5S)-1-[(2S)-2-cyclobutyl-2-[(2S)-2-(methylamino)propanamido]acetyl]-5-[[(1R)-1,2,3,4-tetrahydronaphthalen-1-yl]carbamoyl]pyrrolidin-3-yl]oxy]propyl)piperazin-1-yl]propoxy]-N-[(1R)-1,2,3,4-tetrahydronaphthalen-1-yl]pyrrolidine-2-carboxamide], for which the results for the IC50 in test [1], in test [2] and in test [3] were 0.1 to 10 nM, 10 to 100 nM and 10 to 100 nM, respectively.
Consider `CN[C@@H](C)C(=O)N[C@H](C(=O)N1C[C@@H](OCCC(=O)N2CCN(C(=O)CCO[C@H]3C[C@@H](C(=O)N[C@@H]4CCCc5ccccc54)N(C(=O)[C@@H](NC(=O)[C@H](C)NC)C4CCCCC4)C3)CC2)C[C@H]1C(=O)N[C@@H]1CCCc2ccccc21)C1CCCCC1` [Compound IV, (2S,4S)-1-[(2S)-2-Cyclohexyl-2-[(2S)-2-(methylamino)propanamido]acetyl]-4-{3-[4-(3-{[(3S,5S)-1-[(2S)-2-cyclohexyl-2-[(2S)-2-(methylamino)propanamido]acetyl]-5-{[(1R)-1,2,3,4-tetrahydronaphthalen-1-yl]carbamoyl}pyrrolidin-3-yl]oxy}propanoyl)piperazin-1-yl]-3-oxopropoxy}-N-[(1R)-1,2,3,4-tetrahydronaphthalen-1-yl]pyrrolidine-2-carboxamide], for which the IC50 in test [1] was in the range of 0.1 to 10 nM; in test [2], 10 to 100 nM; in test [3] it was 10 to 100 nM.
`CN[C@@H](C)C(=O)N[C@@H](C)C(=O)N1C[C@@H](OCCC(=O)N2CCN(C(=O)CCO[C@H]3C[C@@H](C(=O)N[C@@H]4CCCc5ccccc54)N(C(=O)[C@H](C)NC(=O)[C@H](C)NC)C3)CC2)C[C@H]1C(=O)N[C@@H]1CCCc2ccccc21` [Compound IV-A, (2S,4S)-1-[(2S)-2-[(2S)-2-(Methylamino)propanamido]propanoyl]-4-[3-[4-(3-[[(3S,5S)-1-[(2S)-2-[(2S)-2-(methylamino)propanamido]propanoyl]-5-[[(1R)-1,2,3,4-tetrahydronaphthalen-1-yl]carbamoyl]pyrrolidin-3-yl]oxy]propanoyl)piperazin-1-yl]-3-oxopropoxy]-N-[(1R)-1,2,3,4-tetrahydronaphthalen-1-yl]pyrrolidine-2-carboxamide]: the results for the IC50 in test [1], in test [2] and in test [3] were 0.1 to 10 nM, 10 to 100 nM and 100 to 1000 nM, respectively.
As for `CC[C@H](NC(=O)[C@H](C)NC)C(=O)N1C[C@@H](OCCC(=O)N2CCN(C(=O)CCO[C@H]3C[C@@H](C(=O)N[C@@H]4CCCc5ccccc54)N(C(=O)[C@H](CC)NC(=O)[C@H](C)NC)C3)CC2)C[C@H]1C(=O)N[C@@H]1CCCc2ccccc21` [Compound IV-B, (2S, 4S)-1-[(2S)-2-[(2S)-2-(Methylamino)propanamido]butanoyl]-4-[3-[4-(3-[[(3S,5S)-1-[(2S)-2-[(2S)-2-(methylamino)propanamido]butanoyl]-5-[[(1R)-1,2,3,4-tetrahydronaphthalen-1-yl]carbamoyl]pyrrolidin-3-yl]oxy]propanoyl)piperazin-1-yl]-3-oxopropoxy]-N-[(1R)-1,2,3,4-tetrahydronaphthalen-1-yl]pyrrolidine-2-carboxamide], the IC50 was in the range of 0.1 to 10 nM in test [1], 10 to 100 nM in test [2] and 100 to 1000 nM in test [3].
Regarding `CN[C@@H](C)C(=O)N[C@H](C(=O)N1C[C@@H](OCCC(=O)N2CCN(C(=O)CCO[C@H]3C[C@@H](C(=O)N[C@@H]4CCCc5ccccc54)N(C(=O)[C@@H](NC(=O)[C@H](C)NC)C4CC4)C3)CC2)C[C@H]1C(=O)N[C@@H]1CCCc2ccccc21)C1CC1` [Compound IV-C, (2S,4S)-1-[(2S)-2-Cyclopropyl-2-[(2S)-2-(methylamino)propanamido]acetyl]-4-{3-[4-(3-{[(3S,5S)-1-[(2S)-2-cyclopropyl-2-[(2S)-2-(methylamino)propanamido]acetyl]-5-{[(1R)-1,2,3,4-tetrahydronaphthalen-1-yl]carbamoyl}pyrrolidin-3-yl]oxy}propanoyl)piperazin-1-yl]-3-oxopropoxy}-N-[(1R)-1,2,3,4-tetrahydronaphthalen-1-yl]pyrrolidine-2-carboxamide], the IC50 in test [1] is 0.1 to 10 nM; in test [2], 0.1 to 10 nM; in test [3] it was 100 to 1000 nM.
With `CN[C@@H](C)C(=O)N[C@H](C(=O)N1C[C@@H](OCCC(=O)N2CCN(C(=O)CCO[C@H]3C[C@@H](C(=O)N[C@@H]4CCCc5ccccc54)N(C(=O)[C@@H](NC(=O)[C@H](C)NC)C(C)C)C3)CC2)C[C@H]1C(=O)N[C@@H]1CCCc2ccccc21)C(C)C` [Compound IV-D, (2S, 4S)-1-[(2S)-3-Methyl-2-[(2S)-2-(methylamino)propanamido]butanoyl]-4-[3-[4-(3-[[(3S,5S)-1-[(2S)-3-methyl-2-[(2S)-2-(methylamino)propanamido]butanoyl]-5-[[(1R)-1,2,3,4-tetrahydronaphthalen-1-yl]carbamoyl]pyrrolidin-3-yl]oxy]propanoyl)piperazin-1-yl]-3-oxopropoxy]-N-[(1R)-1,2,3,4-tetrahydronaphthalen-1-yl]pyrrolidine-2-carboxamide], the IC50 in test [1] lay within 0.1 to 10 nM; in test [2], 10 to 100 nM; in test [3], 10 to 100 nM.
Take `CN[C@@H](C)C(=O)N[C@H](C(=O)N1C[C@@H](OCCC(=O)N2CCN(C(=O)CCO[C@H]3C[C@@H](C(=O)N[C@@H]4CCCc5ccccc54)N(C(=O)[C@@H](NC(=O)[C@H](C)NC)C4CCC4)C3)CC2)C[C@H]1C(=O)N[C@@H]1CCCc2ccccc21)C1CCC1` [Compound IV-G, (2S,4S)-1-[(2S)-2-Cyclobutyl-2-[(2S)-2-(methylamino)propanamido]acetyl]-4-[3-[4-(3-[[(3S,5S)-1-[(2S)-2-cyclobutyl-2-[(2S)-2-(methylamino)propanamido]acetyl]-5-[[(1R)-1,2,3,4-tetrahydronaphthalen-1-yl]carbamoyl]pyrrolidin-3-yl]oxy]propanoyl)piperazin-1-yl]-3-oxopropoxy]-N-[(1R)-1,2,3,4-tetrahydronaphthalen-1-yl]pyrrolidine-2-carboxamide]: the IC50 lay in the range of 0.1 to 10 nM in test [1], 10 to 100 nM in test [2] and 10 to 100 nM in test [3].
